Reference: PMC8426295, “Cytotoxic and radiosensitising effects of a novel thioredoxin reductase inhibitor in breast cancer” (Investigational New Drugs, 2021)

Tests used:
TrxR [1] = molecular target: T1, TrxR (Homo sapiens, UniProt Q16881); assay: Thioredoxin reductase activity assay (insulin reduction) on lysates of drug-treated breast cancer cells; assay type: cell-based
T1 sequence (Q16881 1-649): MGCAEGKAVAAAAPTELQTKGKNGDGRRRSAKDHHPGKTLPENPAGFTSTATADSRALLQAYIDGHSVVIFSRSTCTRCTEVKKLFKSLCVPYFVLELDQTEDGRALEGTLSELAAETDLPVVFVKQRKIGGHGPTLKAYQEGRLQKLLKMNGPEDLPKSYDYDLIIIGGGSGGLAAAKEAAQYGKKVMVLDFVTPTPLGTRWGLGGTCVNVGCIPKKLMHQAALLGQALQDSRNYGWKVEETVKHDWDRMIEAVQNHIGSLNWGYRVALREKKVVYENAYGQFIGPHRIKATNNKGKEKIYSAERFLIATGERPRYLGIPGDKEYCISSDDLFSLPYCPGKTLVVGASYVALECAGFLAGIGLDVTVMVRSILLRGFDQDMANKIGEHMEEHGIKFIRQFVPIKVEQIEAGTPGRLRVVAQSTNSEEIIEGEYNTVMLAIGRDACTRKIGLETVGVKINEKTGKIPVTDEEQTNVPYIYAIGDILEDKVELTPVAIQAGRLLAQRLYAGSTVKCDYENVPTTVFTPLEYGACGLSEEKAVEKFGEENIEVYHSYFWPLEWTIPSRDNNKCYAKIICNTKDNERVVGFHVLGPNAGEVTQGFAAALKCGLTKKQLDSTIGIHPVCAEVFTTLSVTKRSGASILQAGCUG
Description: TrxR enzyme activity was assessed using an insulin reduction assay. Briefly, 2 × 10^6 cells were seeded, in triplicate, in 75c m^2 tissue culture flasks. After 24 h, sub-confluent cells were treated with either IQ9 (0–1000 nM) or 1000 nM auranofin (as a positive control) for 4 or 48 h, then trypsinised, washed, and resuspended in M-PER™ Mammalian Protein Extraction Reagent (ThermoFisher, USA) supplemented with 1X Halt protease inhibitor and EDTA. Protein concentration was determined using the Bradford assay. 80 μg of protein lysates isolated from each treatment conditions and reaction mix (HE buffer (100 mM HEPES pH 7.2, 5 mM EDTA), 20 μM Trx, 1.7 mM insulin, 10 mM β-NADPH) were added to the 96-well plate and incubated for 1 h at 37 °C. The reaction was stopped by adding stop buffer containing 6 M guanidine hydrochloride, 50 mM Tris, and 10 mM DTNB (Sigma, UK), with a final pH of 8.0. The plate was read at room temperature using a BMG Fluostar Optima Microplate Reader at 412 nm wavelength. The TrxR activity was expressed as the percentage of control, no drug-treated.

MDA-MB-231 cells = assay: Clonogenic survival assay; assay type: cell-based; settings: Homo sapiens
Description: (§1) 5 × 10^5 cells were seeded in T25 cm^2 tissue culture flasks and incubated overnight. The sub-confluent cells were then treated either for 4-h or 48-h with IQ9 (0–5000 nM) or doxorubicin (10–20 nM). Following drug treatment, cells were collected, counted, and plated at low-density, in triplicate, and incubated, at 37 °C, 5% CO2, undisturbed, for 2 weeks for TNBC cells and 3 weeks for luminal cells, for colony formation. Colonies were fixed (50% methanol in 0.9% saline solution) and stained (0.5% crystal violet solution). Colonies consisting of more than 50 cells were confirmed by microscopy and scored as survivors. The plating efficiency (PE) was calculated as numbers of colonies formed/ numbers of cells plated. For single-agent treatment, drug or radiation, the surviving fraction was calculated as: number of colonies formed/ (numbers of cell plated x PE). For drug radiation combination experiments, cytotoxicity of drug treatment was accounted for by calculating surviving fraction as: number of colonies formed from each radiation dose/ (number of cells plated × PE × surviving fraction of drug-treated cell at 0 Gy).
(§2) IC50 values were calculated from dose-response curves using an SPSS regression model between inhibition ratios and concentration gradients. The radiobiological parameters: alpha (α), beta (β), α/β ratio, and surviving fraction at 2 Gy (SF2) were extracted from the survival curves fitted using the LQ model. All results are presented as average ± standard deviation (SD) of three independent experiments, each performed in triplicate. Data were analysed using the student T-test and ANOVA one-way test. Statistical analysis was performed using SPSS 23.0 software. Values of P < 0.05 were considered statistically significant.

MCF-7 cells = assay: Clonogenic survival assay; assay type: cell-based; settings: Homo sapiens
Description: as §1, §2

MDA-MB-436 cells = assay: Clonogenic survival assay; assay type: cell-based; settings: Homo sapiens
Description: as §1, §2

MDA-MB-468 cells = assay: Clonogenic survival assay; assay type: cell-based; settings: Homo sapiens
Description: as §1, §2

T47D cells = assay: Clonogenic survival assay; assay type: cell-based; settings: Homo sapiens
Description: as §1, §2

breast cancer cells = assay: Potency against breast cancer cells (IC50 range, comparison of TrxR inhibitors); assay type: cell-based; settings: Homo sapiens; range over the cell lines and assays of this study
TrxR [2] = assay: Western blotting of TrxR expression; assay type: cell-based, human; settings: clonogenic IC50 concentration, 48 h
Description: (§3) Cells were treated with IQ9 (clonogenic IC50 concentrations) for 48 h, harvested, and resuspended in 1 mL of RIPA buffer (Sigma, UK) supplemented with 1X Halt phosphatase inhibitor cocktail, protease inhibitor cocktail, and EDTA. Samples were run on an SDS-polyacrylamide gel and transferred onto a 0.2 μm nitrocellulose membrane (GE Healthcare). The membrane was then blocked using 5% milk powder in 0.1% PBS/ Tween20, for 1 h at room temperature and then incubated with primary antibody overnight at 4 °C. Anti-β-actin antibody (Abcam) was used as a loading control. Primary antibodies were rabbit anti-human Trx (Abcam; 1:1000), mouse anti-human antibody (Abcam; 1:500), and rabbit anti-human Txnip (Abcam; 1:500). For Trx and Txnip, bands were detected using an Odyssey FC Imager (LI-COR). Images were obtained and fluorescence intensity quantified using Image Studio Software (version 4). The signals for Trx and Txnip were normalised against β-actin. For TrxR, bands were detected using an Amersham Enhanced Chemiluminescence system (GE Healthcare).

Trx = assay: Western blotting of Trx expression; assay type: cell-based, human; settings: 48 h
Description: as §3

COC1=CC(=O)c2c(c(COc3c(F)cc(F)cc3F)cn2C)C1=O [IQ9]
inhibition of TrxR activity (TrxR [1]; 1000 nM, 4 h, all TNBC cell lines): complete inhibition
inhibition at 1 µM (TrxR [1]; 1000 nM, 4 h, luminal cell lines): ~70%
inhibition in TrxR activity (TrxR [1]; 48 h exposure, T47D): no significant inhibition
IC50 (MDA-MB-231 cells; MDA-MB-231, 4 h): 565 ± 29.5 nM
IC50 (MDA-MB-231 cells; MDA-MB-231, 48 h): 324 ± 20.1 nM
IC50 (MCF-7 cells; MCF7, 4 h): 340.5 ± 2.1 nM
IC50 (MCF-7 cells; MCF7, 48 h): 601 ± 114 nM
IC50 (MDA-MB-436 cells; MDA-MB-436, 4 h): 195 ± 4.5 nM
IC50 (MDA-MB-436 cells; MDA-MB-436, 48 h): 236 ± 71.5 nM
IC50 (MDA-MB-468 cells; MDA-MB-468, 4 h): 502 ± 171 nM
IC50 (MDA-MB-468 cells; MDA-MB-468, 48 h): 916 ± 173 nM
IC50 (T47D cells; 4 h): 2070 ± 53.7 nM
IC50 (T47D cells; 48 h): 1880 ± 298 nM
IC50 (breast cancer cells): 200 to 2000 nM
expression of TrxR (TrxR [2]; TNBC cells): little effect, if any
expression of TrxR (TrxR [2]; luminal cells): Increased expression
expression of Trx (Trx; MDA-MB-231, clonogenic IC50 concentration, P = 0.003): increased expression
expression of Trx (Trx; the other four cell lines (MDA-MB-468, MDA-MB-436, T47D, MCF-7), clonogenic IC50 concentration): no effect
